Data from patent publication US8008487B2, “Substituted thieno[2,3-D]pyrimidines as fungicides” (priority 2004, dated 2011).

Key:
Assay type in all cases: in vivo
Colletotricum lagenarium = test: Cucumber Anthracnose (COLLLA), whole-plant fungicide test; conditions: one-day protectant test; for pest or weed control at 200 ppm: foliar
[1] = test system: Puccinia recondita tritici; test: Leaf Rust of Wheat (PUCCRT), whole-plant fungicide test; conditions: one-day protectant test; for pest or weed control at 200 ppm / pest or weed control at 100 ppm: Puccinia recondita, 24 h, read-out: PUCCRT percent control of disease; for pest or weed control at 200 ppm: foliar; for pest or weed control at 200 ppm / PUCCRT percent control of disease: 200 ppm on foliage; for pest or weed control at 100 ppm: 100 ppm (footnote a)
Erysiphe cichoracaerum = test: Cucumber Powdery Mildew (ERYSCI), whole-plant fungicide test; conditions: 200 ppm on foliage, one-day protectant test; for pest or weed control at 200 ppm: Erysiphe, foliar, 24 h, read-out: ERYSCI percent control of disease
Phytophthora infestans = test: whole plant or invertebrate; conditions: for pest or weed control at 200 ppm: foliar, read-out: PHYTIN percent control of disease, 200 ppm on foliage, tomato, one-day protectant test; for PHYTIN percent control of disease: 200 ppm on foliage, tomato, one-day protectant test
Leptosphaeria nodorum = test: Glume Blotch of Wheat (LEPTNO), whole-plant fungicide test; conditions: one-day protectant test; for pest or weed control at 200 ppm / pest or weed control at 100 ppm: Parastagonospora nodorum, 24 h, read-out: LEPTNO percent control of disease; for pest or weed control at 200 ppm: foliar; for pest or weed control at 200 ppm / LEPTNO percent control of disease: 200 ppm on foliage; for pest or weed control at 100 ppm: 100 ppm (footnote a)
Magnaporthe grisea = test: whole plant or invertebrate; conditions: for pest or weed control at 200 ppm: Pyricularia oryzae, in Oryza sativa, foliar, 24 h, read-out: PYRIOR percent control of disease, 200 ppm on foliage, rice, one-day protectant test; for PYRIOR percent control of disease: 200 ppm on foliage, rice, one-day protectant test
[2] = Cucumis sativus, 24 h, 200 ppm on foliage, read-out: COLLLA percent control of disease
[3] = Phytophthora infestans, in Solanum lycopersicum, 24 h

| Compound | pest or weed control at 200 ppm (Colletotricum lagenarium; [2]) [%] | pest or weed control at 200 ppm [1] [%] | pest or weed control at 200 ppm (Erysiphe cichoracaerum) [%] | pest or weed control at 200 ppm (Phytophthora infestans; [3]) [%] | pest or weed control at 200 ppm (Leptosphaeria nodorum) [%] | pest or weed control at 200 ppm (Magnaporthe grisea) [%] | also measured |
| --- | --- | --- | --- | --- | --- | --- | --- |
| CC(C)(C)OC(=O)c1ccc(CNc2ncnc3scc(Cl)c23)cc1 [Compound 4a] | 0 to 49 | 0 to 49 | 0 to 49 | 0 to 49 | 0 to 49 | 50 to 79 | – |
| COc1ccc(COCC2CC2C(C)Nc2ncnc3scc(Cl)c23)cc1 (stereo not drawn) [Compound 85] | 0 to 49 | 80 to 100 | 80 to 100 | 80 to 100 | 0 to 49 | – | – |
| CC(Nc1ncnc2scc(Cl)c12)c1cnc(OCC(F)(F)F)s1 (stereo not drawn) [Compound 90] | 0 to 49 | 80 to 100 | 80 to 100 | 0 to 49 | 50 to 79 | 80 to 100 | – |
| CCC(Nc1ncnc2scc(Cl)c12)c1ccc(OC)nc1 (stereo not drawn) [Compound 79] | 0 to 49 | 80 to 100 | 0 to 49 | 0 to 49 | 0 to 49 | 80 to 100 | – |
| CC(Nc1ncnc2scc(Cl)c12)c1ccc(OCC(F)F)nc1 (stereo not drawn) [Compound 74] | 80 to 100 | 80 to 100 | 80 to 100 | 0 to 49 | 80 to 100 | 80 to 100 | – |
| CC(Nc1ncnc2scc(Cl)c12)c1ccc(N2CCOCC2)cc1 (stereo not drawn) [Compound 7a] | 50 to 79 | 80 to 100 | 80 to 100 | 80 to 100 | 0 to 49 | 80 to 100 | – |
| CC(Nc1ncnc2scc(Cl)c12)c1ccc(C(C)(C)C)cc1 (stereo not drawn) [Compound 91] | – | 80 to 100 | 80 to 100 | – | 80 to 100 | 80 to 100 | pest or weed control at 100 ppm (Colletotricum lagenarium; Cucumis sativus, 24 h, 100 ppm (footnote a), read-out: COLLLA percent control of disease): 50 to 79%; pest or weed control at 100 ppm (Phytophthora infestans; Phytophthora infestans, in Solanum lycopersicum, 24 h, read-out: PHYTIN percent control of disease, 100 ppm (footnote a), tomato, one-day protectant test): 50 to 79% |
| CC(Nc1ncnc2scc(Cl)c12)c1cccnc1Cl (stereo not drawn) [Compound 80] | 50 to 79 | 80 to 100 | 80 to 100 | 0 to 49 | 0 to 49 | 80 to 100 | – |
| COc1ccc(C(C)Nc2ncnc3scc(S(C)(=O)=O)c23)cc1 (stereo not drawn) [Compound 89, 5-Methanesulfonyl-N-[1-(4-methoxyphenyl)ethyl]thieno[2,3-d]pyrimidin-4-amine] | 0 to 49 | 0 to 49 | 0 to 49 | 0 to 49 | 0 to 49 | 50 to 79 | – |
| COc1cc(F)ccc1C(C)Nc1ncnc2scc(Cl)c12 (stereo not drawn) [Compound 83] | 0 to 49 | 80 to 100 | 80 to 100 | 0 to 49 | 0 to 49 | – | – |
| CC(Nc1ncnc2scc(Cl)c12)c1ccc(OCC(F)(F)F)nc1 (stereo not drawn) [Compound 84] | – | – | – | – | – | – | pest or weed control at 100 ppm [1]: 80 to 100% |
| CC(Nc1ncnc2scc(Br)c12)c1cnc(OCC(F)(F)F)nc1 (stereo not drawn) [Compound 67] | 0 to 49 | 80 to 100 | 0 to 49 | 0 to 49 | 0 to 49 | 0 to 49 | – |
| Clc1csc2ncnc(N3CCCCC3c3ccccc3)c12 (stereo not drawn) [Compound 93] | 0 to 49 | 0 to 49 | 0 to 49 | 0 to 49 | 0 to 49 | 80 to 100 | – |
| COc1ccc(C(C)Nc2ncnc3scc(SC)c23)cc1 (stereo not drawn) [Compound 88, 5-Methylthio-N-[1-(4-methoxyphenyl)ethyl]thieno[2,3-d]pyrimidin-4-amine] | 0 to 49 | 80 to 100 | 0 to 49 | 0 to 49 | 0 to 49 | 80 to 100 | – |
| COc1ccc(OCCNc2ncnc3scc(Cl)c23)cc1 [Compound 64] | 0 to 49 | 80 to 100 | 0 to 49 | 0 to 49 | 0 to 49 | 80 to 100 | – |
| Clc1csc2ncnc(NCCc3ccc(N4CCOCC4)cc3)c12 [Compound 8a] | – | – | – | – | – | – | pest or weed control at 100 ppm [1]: 80 to 100%; pest or weed control at 100 ppm (Leptosphaeria nodorum): 50 to 79% |

| Compound | pest or weed control at 200 ppm (Colletotricum lagenarium; [2]) [%] | pest or weed control at 200 ppm [1] [%] | pest or weed control at 200 ppm (Erysiphe cichoracaerum) [%] | pest or weed control at 200 ppm (Phytophthora infestans; [3]) [%] | pest or weed control at 200 ppm (Leptosphaeria nodorum) [%] | pest or weed control at 200 ppm (Magnaporthe grisea) [%] | also measured |
| --- | --- | --- | --- | --- | --- | --- | --- |
| CC(Nc1ncnc2scc(Cl)c12)c1cccc2ccccc12 (stereo not drawn) [Compound 3a] | 0 to 49 | 80 to 100 | 80 to 100 | 0 to 49 | 0 to 49 | 80 to 100 | – |
| CC(Nc1ncnc2scc(Cl)c12)c1ccc(C(F)(F)F)cc1 (stereo not drawn) [Compound 26] | 0 to 49 | 80 to 100 | 80 to 100 | 0 to 49 | 80 to 100 | 80 to 100 | – |
| CC(Nc1ncnc2scc(Cl)c12)c1ccc2oc(CC(C)(C)C)nc2c1 (stereo not drawn) [Compound 1a] | – | – | – | – | – | – | pest or weed control at 100 ppm [1]: 80 to 100%; pest or weed control at 100 ppm (Leptosphaeria nodorum): 50 to 79% |
| Clc1csc2ncnc(N3CCOCC3c3ccccc3)c12 (stereo not drawn) [Compound 92] | 0 to 49 | 0 to 49 | 0 to 49 | 0 to 49 | 0 to 49 | 80 to 100 | – |
| COCC1CC1C(C)Nc1ncnc2scc(Cl)c12 (stereo not drawn) [Compound 81] | – | – | – | – | – | – | pest or weed control at 100 ppm [1]: 80 to 100% |
| COc1ccc(C(C)Nc2ncnc3scc(I)c23)cc1 (stereo not drawn) [Compound 70, (5-Iodothieno[2,3-d]pyrimidin-4-yl)-[1-(4-methoxyphenyl)ethyl]amine] | 0 to 49 | 0 to 49 | 0 to 49 | 0 to 49 | 0 to 49 | 50 to 79 | – |
| Clc1csc2ncnc(NCCc3ccc4ccccc4c3)c12 [Compound 2a] | 0 to 49 | 80 to 100 | 80 to 100 | 80 to 100 | 0 to 49 | 80 to 100 | – |
| CC(C)c1ccc(C(C)Nc2ncnc3scc(Cl)c23)cc1 (stereo not drawn) [Compound 24] | 0 to 49 | – | – | – | – | – | PUCCRT percent control of disease [1]: * (* is 0-49 percent control of disease); ERYSCI percent control of disease (Erysiphe cichoracaerum): * (* is 0-49 percent control of disease); PHYTIN percent control of disease (Phytophthora infestans): * (* is 0-49 percent control of disease); LEPTNO percent control of disease (Leptosphaeria nodorum): * (* is 0-49 percent control of disease); PYRIOR percent control of disease (Magnaporthe grisea): ** (** is 50-79 percent control of disease) |
| CC(C)c1ccc(C(C)Nc2ncnc3scc(Cl)c23)cc1 (stereo not drawn) [Compound 25] | – | – | – | – | – | – | COLLLA percent control of disease (Colletotricum lagenarium; 200 ppm on foliage): * (* is 0-49 percent control of disease); PUCCRT percent control of disease [1]: *** (*** is 80-100 percent control of disease); ERYSCI percent control of disease (Erysiphe cichoracaerum): *** (*** is 80-100 percent control of disease); PHYTIN percent control of disease (Phytophthora infestans): *** (*** is 80-100 percent control of disease); LEPTNO percent control of disease (Leptosphaeria nodorum): *** (*** is 80-100 percent control of disease); PYRIOR percent control of disease (Magnaporthe grisea): *** (*** is 80-100 percent control of disease) |
| CC(Nc1ncnc2scc(Cl)c12)c1cnccn1 (stereo not drawn) [Compound 23] | 0 to 49 | 80 to 100 | 80 to 100 | 0 to 49 | 0 to 49 | 50 to 79 | – |
| CC(Nc1ncnc2scc(Cl)c12)c1ccc(OC(F)(F)F)cc1 (stereo not drawn) [Compound 82] | 0 to 49 | 80 to 100 | 80 to 100 | 0 to 49 | 0 to 49 | – | – |
| CC(Nc1ncnc2scc(Cl)c12)c1ccc(OCC(F)(F)F)cc1 (stereo not drawn) [Compound 73] | 80 to 100 | 80 to 100 | 80 to 100 | 0 to 49 | 50 to 79 | 80 to 100 | – |
| COc1ccc(OCC2CC2C(C)Nc2ncnc3scc(Cl)c23)cc1 (stereo not drawn) [Compound 86] | 80 to 100 | 80 to 100 | 80 to 100 | 0 to 49 | 50 to 79 | 80 to 100 | – |
| COc1ccc(C(C)Nc2ncnc3scc(Cl)c23)cc1 (stereo not drawn) [Compound 27] | 0 to 49 | 80 to 100 | 80 to 100 | 0 to 49 | 50 to 79 | 80 to 100 | – |
| COc1ncc(C(C)Nc2ncnc3scc(Cl)c23)s1 (stereo not drawn) [Compound 72] | 0 to 49 | 80 to 100 | 80 to 100 | 0 to 49 | 0 to 49 | 80 to 100 | – |
